According to patent US11040085B2, “Pharmaceutical composition containing F1 polypeptide and/or F3 polypeptide and use thereof” (priority 2016, dated 2021):

Tests used:
Hela cells = assay: MTT assay, growth of human cervical carcinoma cells (HELA) in vitro; type: cell-based; conditions: different dosages, overnight, MTT assay (FIG. 7)
condyloma acuminate = conditions: topical application of 5% emulsion; cited from earlier work
NP69 cells = assay: MTT assay, immortalized normal cells NP69; type: cell-based; conditions: different concentrations, incubated overnight, MTT assay (FIG. 1D)
Method: Immortalized normal cells NP69 were used in another experiment. More specifically, 100 μL of 5×10^3 NP69 cells cultured in a RPMI medium containing 10% of calf serum were added into a 96-well cell culture plate, the F1 polypeptide, the F3 polypeptide, and control polypeptide P3 (FIG. 1D) with different concentrations were added respectively and incubated overnight in an incubator with 5% of CO2 at 37° C., and the cell proliferation was determined by a MTT assay.

TC-1 cells [1] = type: cell-based; conditions: different concentrations, incubated overnight, MTT assay (FIG. 1A-1C)
Method: More specifically, in the method, 100 μL of 5×10^3 TC-1 cells cultured in a RPMI medium containing 10% of calf serum were added into a 96-well cell culture plate, the F1 polypeptide (FIG. 1A), the F3 polypeptide (FIG. 1B), and control polypeptide P3 (FIG. 1C) with different concentrations were added respectively and incubated overnight in an incubator with 5% of CO2 at 37° C., and the cell proliferation was determined by a MTT assay.
(§1) 100 μL of 5×10^3 TC-1 cells cultured in a RPMI medium containing 10% of calf serum were added into a 96-well cell culture plate, 5 μg/mL of F1 and/or F3 and control polypeptides P3 and F4 were added respectively and incubated overnight in an incubator with 5% of CO2 at 37° C., and the cell proliferation was determined by a MTT assay.
as §1, with “and/or Imiquimod” for “and control polypeptides P3 and F4”

tumor = conditions: M. A. Apponyi, et al., Peptides, 2004, 25, 1035; cited from earlier work
TC-1 cells [2] = assay: Stability in vitro (Tests 1-3), MTT assay on TC-1 cells; type: cell-based, mouse; conditions: for inhibiting effect on growth of TC-1 cells at 72th hour: Test 1, 10 μg/ml, incubated 72 hours (FIG. 10A); for activity after being prepared and stored for 7 days: Test 2, stored at minus 20° C. before using, 10 μg/ml, 24 hours incubation (FIG. 10B); for activity in PBS with a pH value of 5.5: Test 3, 10 μg/ml; for activity in PBS with a pH value of 5.5 / activity in PBS heated at 100° C.: 24 hours incubation (FIG. 10C); for activity in PBS heated at 100° C.: Test 3, PBS heated 10 minutes at 100° C. before using
Method: RPMI medium containing 10% of calf serum and 5×10^3 TC-1 cells were added into a 96-well cell culture plate; 10 μg/ml of the F1 polypeptide, the F3 polypeptide, and a mixture of F1 and F3 in a ratio of 1:1 were added respectively into the medium and incubated for 72 hours in an incubator with 5% of CO2 at 37° C., and the cell proliferations at 24th hour, 48th hour, and 72th hour were determined respectively by the MTT assay.
The steps in the Test 2 were substantially the same as those in the Test 1, except that the F1 polypeptide and the F3 polypeptide which had been prepared and stored for 0, 1, 3, 5, and 7 days at minus 20° C. respectively before using were added into the medium, and the incubation was performed for 24 hours.
The steps in the Test 3 were substantially the same as those in the Test 1, except that the pH value of the phosphate buffer saline (PBS) in the medium was changed or the PBS is heated for 10 minutes at 100° C. before using, and the incubation was performed for 24 hours. Referring to FIG. 10C, it can be seen that the F1 polypeptide and the F3 polypeptide were still active even in the PBS with a pH value of 5.5 or heated at 100° C.

IL-6 = IL-6 level in TC-1 culture solution by ELISA; type: cell-based, mouse; conditions: for change of IL-6 levels with increase of concentration: 5 μg/mL to 10 μg/mL, overnight (FIG. 12A, 12B); for IL-6 level in TC-1 culture solution: 5 μg/mL, overnight, vs untreated solution or P3 polypeptide (FIG. 12A)
Method: FIGS. 12A and 12B are graphs illustrating IL-6 levels (detected by ELISA) in TC-1 culture solutions treated by 5 μg/mL and 10 μg/mL of the P3 polypeptide, the F1 polypeptide, the F3 polypeptide, and a mixture of F1 and F3 overnight, respectively. […] IL-6 levels were decreased with increase of concentration of the F1 polypeptide, the F3 polypeptide, or the mixture of F1 and F3, which may be resulted from apoptosis of TC-1 cells induced by high concentration of the F1 polypeptide, the F3 polypeptide, or the mixture of F1 and F3.

TC-1 cells [3] = assay: Interaction of FITC-labeled polypeptide with TC-1 cell (flow cytometry, confocal microscopy); type: cell-based, mouse; conditions: 2 μg/mL FITC-labeled polypeptide, flow cytometry (FIG. 5A)
Method: The separated protein was digested by trypsin, polypeptides produced from the digestion was labeled by iTRAQ 4-plex reagents, and the labeled polypeptides were quantitatively analyzed by using a system combining a nano high performance liquid chromatography and a triple time of flight mass spectrometer. […] Besides, the F3 polypeptide and a control polypeptide P3 were labeled by fluorescent dye fluorescein isothiocyanate (FITC), incubated together with TC-1 cells for different periods, and repeatedly washed, thereafter a fluorescence intensity of FITC in the TC-1 cell was detected by a flow cytometry (FIG. 5A).
1000 μL of 5×10^5 TC-1 cells cultured in a RPMI medium containing 10% of calf serum were added into a 24-well cell culture plate, 2 μg/mL of the F3 polypeptide labeled by FITC was added into the cells being incubated, cells at different time points of the incubation were collected and washed with PBS buffer solution, and then the relationship between the F3 polypeptide and TC-1 cell was observed by a flow cytometer (FIG. 5A) or a confocal microscopy (FIG. 5B).

CC(C)Cn1cnc2c(N)nc3ccccc3c21 [Imiquimod]
inhibiting effect on growth of Hela cells in vitro (Hela cells): inhibiting effect | recurrence rate (condyloma acuminate): about 10%

F1 polypeptide: polypeptide of SEQ ID NO: 1, sequence found in tree frog secretion, made by solid phase peptide synthesis; Caerin polypeptide (GLLSVLGSVAKHVLPHVVPVIAEHL; the sequence is synthesized)
inhibiting effect on NP69 cells (NP69 cells): no inhibiting effect | inhibiting effect on growth of TC-1 cells (TC-1 cells [1]): obvious inhibiting effects | effect on tumor (tumor): inhibiting effect on tumor | inhibiting effect on growth of TC-1 cells at 72th hour (TC-1 cells [2]): significant inhibiting effects | activity after being prepared and stored for 7 days (TC-1 cells [2]): not reduced | activity in PBS with a pH value of 5.5 (TC-1 cells [2]): still active | activity in PBS heated at 100° C. (TC-1 cells [2]): still active | change of IL-6 levels with increase of concentration (IL-6): decreased | IL-6 level in TC-1 culture solution (IL-6): significantly higher

F3 polypeptide: polypeptide of SEQ ID NO: 2, sequence found in tree frog secretion, made by solid phase peptide synthesis; Caerin polypeptide (GLFGVLGSIAKHLLPHVVPVIAEKL; the sequence is synthesized)
inhibiting effect on NP69 cells (NP69 cells): no inhibiting effect | inhibiting effect on growth of TC-1 cells (TC-1 cells [1]): obvious inhibiting effects | time at which FITC was found in TC-1 cell (TC-1 cells [3]): 15 min | time of peak fluorescence intensity of FITC in TC-1 cell (TC-1 cells [3]): 2 h | inhibiting effect on growth of TC-1 cells at 72th hour (TC-1 cells [2]): significant inhibiting effects | activity after being prepared and stored for 7 days (TC-1 cells [2]): not reduced | activity in PBS with a pH value of 5.5 (TC-1 cells [2]): still active | activity in PBS heated at 100° C. (TC-1 cells [2]): still active | change of IL-6 levels with increase of concentration (IL-6): decreased | IL-6 level in TC-1 culture solution (IL-6): significantly higher
